Like-named read-outs stand apart in the source and are kept apart here.
Columns and labels:
[1] = tested on: SH-SY5Y human neuroblastoma; assay: MTT cytotoxicity assay, SH-SY5Y; assay type: cell-based; details: 24 h
Experimental: (§1) Cytotoxicity was assessed using the MTT assay. Briefly, the cells were seeded into a 96-well plate at a density of 1×10^5 cells per well in 100 µL of corresponding media and incubated at 37 °C in an incubator under 5% CO2 tension for 24 h. The culture media were then replaced with 100 µL of fresh serum-free media in the presence of varied concentrations of pterosin derivatives, and cells were incubated for an additional 24 h. The control was treated with an equal amount of DMSO present in the assay for a 5 mM concentration. Then, 100 µL of MTT solution (0.5 mg/mL in Phosphate Buffered Saline (PBS)) was added to each culture. To measure the proportion of surviving cells, the media were replaced with 100 µL of DMSO 2 h after the administration of MTT solution. The absorbance was measured at 570 nm using a spectrophotometric plate reader (Molecular Devices, Sunnyvale, CA, USA).

C6 rat glial cells = assay: MTT cytotoxicity assay, C6; assay type: cell-based; details: 24 h
Experimental: as §1

[2] = target: T1, BACE1 (human recombinant β-secretase) (Homo sapiens, UniProt P56817); assay: Kinetic analysis of BACE1 inhibition (Dixon and Lineweaver−Burk plots); assay type: biochemical; details: for Inhibition type BACE1: Dixon and Lineweaver−Burk plots
Experimental: (§2) The Ki was determined by interpretation of the Dixon plot, with the value of the x-axis intercept taken as −Ki.
Dixon plots for BACE1 inhibition by pterosin derivatives.
Dixon plots for BACE1 inhibition by pteroside derivatives.

[3] = target: T1, BACE1 (human recombinant β-secretase); assay: In vitro BACE1 FRET enzyme assay; assay type: biochemical; details: mean ± S.D. of three experiments
Excerpt: (§3) BACE1 (human recombinant β-secretase) ([…]) and the BACE1 FRET (fluorescence resonance energy transfer) assay kit Red were purchased from ThermoFisher Scientific (P2985; Waltham, MA, USA). […] For the cell culture experiment, Dulbecco’s modified Eagle’s medium (DMEM), Opti-MEM, fetal bovine serum (FBS), and penicillin/streptomycin were obtained from Capricorn Scientific (Ebsdorfergrund, Germany). β-secretase inhibitor III (β-SI) was purchased from Calbiochem (Darmstadt, Germany). The protease inhibitor mixture (a mixture of AEBSF, pepstatin A, E-64, bestain, leupeptin, and aprotinin) was purchased from Sigma-Aldrich (St. Louis, MO, USA). Enzyme-linked immunosorbent assay (ELISA) kits for Aβ40 and Aβ42 were obtained from IBL (Kunma, Japan). All chemicals and solvents used were reagent grade, purchased from commercial sources, and used as received.
The BACE1 FRET assay was carried out according to the manufacturer’s instructions with slight modifications as previously described. The assay was performed in a […] black plate using a multi-pipette.

Electric eel AChE = target: T2, Electric eel AChE (Electrophorus electricus, UniProt O42275); assay: Kinetic analysis of AChE inhibition (Dixon and Lineweaver−Burk plots); assay type: biochemical; details: for Inhibition type AChE: Dixon and Lineweaver−Burk plots
T2 construct: purchased Sigma-Aldrich Co
Experimental: as §2
Dixon plots for AChE inhibition by pterosin derivatives. (2S,3R)-Pterosin C (A), (2R,3R)-pterosin C (B), and (2R)-pterosin B (C) were tested in the presence of substrate concentrations of 0.1 mM (●), 0.3 mM (○), and 0.6 mM (▼). Lineweaver-Burk plots for AChE inhibition were generated with inhibitor concentrations of 0 µM (Δ), 4 µM (▼), 20 µM (○), and 100 µM (●) for (2S,3R)-pterosin C (D) and (2R,3R)-pterosin C (E); and 0 µM (Δ), 2 µM (▼), 10 µM (○), and 50 µM (●) for (2R)-pterosin B (F).
Dixon plots for AChE inhibition by pteroside derivatives. (2R)-pteroside B (A), (2R,3R)-pteroside C (B), and (3S)-pteroside D (C) were tested in the presence of substrate concentrations of 0.1 mM (●), 0.3 mM (○), and 0.6 mM (▼). Lineweaver-Burk plots for AChE inhibition were generated with inhibitor concentrations of 0 µM (Δ), 0.8 µM (▼), 4 µM (○), and 20 µM (●) for (2R)-pteroside B (D), (2R,3R)-pteroside C (E), and (3S)-pteroside D (F).

[4] = tested on: SH-SY5Y, C6, NIH3T3 and B16F10 cell lines; assay: MTT cytotoxicity assay, all cell lines tested; assay type: cell-based
Experimental: as §1

horse serum BChE = target: T3, horse serum BChE (Equus caballus, UniProt P81908); assay: In vitro cholinesterase enzyme assay (Ellman), BChE; assay type: biochemical
T3 construct: horse serum BChE (EC 3.1.1.8); purchased Sigma-Aldrich Co; host or cells: horse serum
Excerpt: as §3
The inhibitory activities of pterosin derivatives against cholinesterases were measured using the method developed by Ellman et al.[32]. The reaction mixture contained 140 μL of sodium phosphate buffer (pH 8.0), 20 μL of test sample solution (final concentration of the compound 100 μM), and 20 μL of AChE or BChE solution, mixed and incubated for 15 min at room temperature. […] The reactions were initiated following the addition of 10 μL of DTNB and 10 μL of acetyl thiocholine iodide for the AChE assay or butyryl thiocholine chloride for the BChE assay in 96-well microplates, which were incubated for 15 min.

[5] = tested on: NIH3T3 mouse embryo fibroblasts; assay: MTT cytotoxicity assay, NIH3T3; assay type: cell-based; details: 24 h
Experimental: as §1

[6] = tested on: Mouse neuroblastoma N2a cells stably overexpressing the human APP Swedish mutation (APPswe); assay: Aβ40/Aβ42 sandwich ELISA of conditioned media of APPswe neuroblastoma cells; assay type: cell-based
Experimental: Mouse neuroblastoma N2a cells stably overexpressing the human APP Swedish mutation (APPswe) were kindly provided by Dr. Takeshi Iwatsubo (The University of Tokyo). […] To analyze the effect of (2R)-pterosin B or (2R,3R)-pteroside C on APP metabolites, APPswe-containing neuroblastoma cells were cultured up to confluency in DMEM that contained 10 mM butyric acid to drive protein expression in the presence of 12, 60, 250, and 500 μM of (2R)-pterosin B or (2R,3R)-pteroside C for 24 h. β-SI (10 µM) was used as a positive control. The negative control included cells cultured in the absence of test compounds. […] Conditioned medium was collected in 0.5 mM phenylmethylsulfonyl fluoride and subjected to ELISA for the 40-residue peptide Aβ (1–40) (Aβ40) or the 42-residue Aβ (1–42) (Aβ42).
Aβ40 and Aβ42 ELISA was performed according to the manufacturer’s instructions. The assay was conducted in a microplate coated with anti-human Aβ35-40 mouse IgG (1A10) or anti-human Aβ38-42 mouse IgG (44A3), respectively. The microplate was added with 100 μL conditioned media, incubated overnight at 4 °C, and then washed with washing buffer. Horseradish peroxidase-conjugated anti-human Aβ11-28 mouse IgG (82E1) was added into each well, incubated at 4 °C for 1 h, and washed with washing buffer. 3,3′,5,5′-Tetramethylbenzidine as a chromogenic substrate was added to each well and incubated for 30 min. The reaction was stopped by the addition of 100 μL stop solution, and the absorbance at 450 nm was measured using a model 680 microplate reader (Bio-Rad, Hercules, CA).

T1 sequence (P56817 46-501): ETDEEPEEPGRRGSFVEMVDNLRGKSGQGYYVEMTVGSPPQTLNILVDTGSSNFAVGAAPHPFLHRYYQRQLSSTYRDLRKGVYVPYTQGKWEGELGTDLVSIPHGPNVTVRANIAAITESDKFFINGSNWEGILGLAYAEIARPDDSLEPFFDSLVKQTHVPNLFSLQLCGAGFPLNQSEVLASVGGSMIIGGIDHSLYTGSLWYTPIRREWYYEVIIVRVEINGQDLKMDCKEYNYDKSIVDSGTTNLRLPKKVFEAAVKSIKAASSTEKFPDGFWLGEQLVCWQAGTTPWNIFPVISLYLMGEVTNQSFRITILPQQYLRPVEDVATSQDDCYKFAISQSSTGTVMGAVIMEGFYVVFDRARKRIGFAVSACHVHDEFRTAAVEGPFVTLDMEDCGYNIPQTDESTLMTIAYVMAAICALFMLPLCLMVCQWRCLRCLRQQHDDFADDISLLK
T2 sequence (O42275 24-633): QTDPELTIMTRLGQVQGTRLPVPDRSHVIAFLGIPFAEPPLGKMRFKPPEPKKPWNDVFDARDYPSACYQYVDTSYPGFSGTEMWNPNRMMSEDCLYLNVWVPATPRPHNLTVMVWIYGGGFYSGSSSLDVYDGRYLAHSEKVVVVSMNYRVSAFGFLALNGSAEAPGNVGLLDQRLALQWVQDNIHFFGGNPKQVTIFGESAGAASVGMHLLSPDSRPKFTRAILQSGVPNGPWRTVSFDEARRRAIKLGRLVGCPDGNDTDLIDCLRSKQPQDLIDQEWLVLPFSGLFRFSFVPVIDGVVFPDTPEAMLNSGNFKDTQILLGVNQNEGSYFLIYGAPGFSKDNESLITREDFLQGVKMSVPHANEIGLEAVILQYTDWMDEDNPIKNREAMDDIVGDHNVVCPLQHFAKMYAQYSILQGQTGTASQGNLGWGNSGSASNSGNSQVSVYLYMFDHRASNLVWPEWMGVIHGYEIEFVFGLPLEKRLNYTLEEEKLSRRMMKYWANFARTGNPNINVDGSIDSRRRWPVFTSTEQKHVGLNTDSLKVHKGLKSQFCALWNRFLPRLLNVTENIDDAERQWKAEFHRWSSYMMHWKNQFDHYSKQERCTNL
T3 sequence (P81908 whole entry): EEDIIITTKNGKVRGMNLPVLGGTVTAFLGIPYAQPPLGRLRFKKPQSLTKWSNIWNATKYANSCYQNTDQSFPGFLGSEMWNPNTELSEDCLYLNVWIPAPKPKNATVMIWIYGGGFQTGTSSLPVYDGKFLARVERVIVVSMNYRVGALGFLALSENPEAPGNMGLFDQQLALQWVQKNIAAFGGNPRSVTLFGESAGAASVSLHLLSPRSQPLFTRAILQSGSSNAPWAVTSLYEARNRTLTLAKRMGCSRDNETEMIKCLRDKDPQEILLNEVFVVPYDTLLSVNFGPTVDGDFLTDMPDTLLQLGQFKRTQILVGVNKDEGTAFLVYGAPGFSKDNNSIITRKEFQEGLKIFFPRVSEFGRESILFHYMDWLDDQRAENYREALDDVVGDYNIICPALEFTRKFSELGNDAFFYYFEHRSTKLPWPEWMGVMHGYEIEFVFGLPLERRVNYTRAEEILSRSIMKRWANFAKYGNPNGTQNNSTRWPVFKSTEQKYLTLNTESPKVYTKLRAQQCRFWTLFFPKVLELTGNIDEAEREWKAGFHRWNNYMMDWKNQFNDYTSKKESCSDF

Row | Structure (SMILES) | LD50 Based on MTT Assay, SY-SY5Y [1] | LD50 Based on MTT Assay, C6 (C6 rat glial cells) | Ki [2] [µM] | Inhibition type BACE1 [2] | IC50 [3] [µM] | Ki (Electric eel AChE) [µM] | Inhibition type AChE (Electric eel AChE) | LD50, cell lines tested [4] | IC50 (horse serum BChE) [µM] | BChE-inhibitory activity fold lower than berberine (horse serum BChE; ratio of IC50) [fold] | LD50 Based on MTT Assay, NIH3T3 [5] | Secretion of Aβ peptides, effect ([6]; 500 μM) | Secreted Aβ40 peptides, effect ([6]; 500 µM, 24 h) | Reduction of Aβ40 peptide secreted into media ([6]; 500 μM, 24 h, P < 0.01) | Ki ([2]; determined by Dixon plot, read-out: Ki BACE1) [µM] | Ki (Electric eel AChE; determined by Dixon plot, read-out: Ki AChE) [µM] | IC50 (horse serum BChE; mean ± S.D. of three experiments, read-out: IC50 BChE) [µM] | Secreted Aβ42 peptide, effect ([6]; 500 µM, 24 h, P < 0.05)
1 | Cc1cc2c(c(C)c1CCO)C(=O)[C@H](C)C2 [(2R)-Pterosin B, (2R)-pterosin B] | >5,000 µM | >5,000 µM | 38.3 | Noncompetitive | 29.6 ± 3.5 | 12.1 | Mixed-type | above 5 mM | 48.1 ± 0.59 | ~15 | >5,000 µM | significantly decreased | significantly decreased | up to 50% |  |  |  | 
2 | Cc1cc2c(c(C)c1CCOC1OC(CO)C(O)C(O)C1O)C(=O)C(C)C2O [(2R,3R)-Pteroside C, (2R,3R)-pteroside C] | >5,000 µM | >5,000 µM |  | Mixed-type | 9.74 ± 1.9 |  | Mixed-type | above 5 mM |  |  | >5,000 µM | significantly decreased |  |  | 12.6 | 8.13 | 5.29 ± 0.82 | significantly decreased

Reference: paper PMC6372667 (Experimental & Molecular Medicine, 2019)
